The nature of this data set: Serum stability assay. Type of data set: in vitro ADME, human. Conditions: peptide 6.6 μM. Here is the method: The serum stability of the peptides was tested using human male serum (Sigma, USA), as previously described ([Chan et al., 2011]). All peptides were tested at a final concentration of 6.6 μM after dilution from a stock solution at 200 μM. The serum was centrifuged at 17,000g for 10 min to remove the lipid component, and the supernatant incubated at 37°C for 15 min, prior to conducting the assay. The peptides were incubated in serum or phosphate-buffered saline (PBS) at 37°C, and aliquots were taken at 0, 3, 8, and 24 h (40-μl aliquots were taken in triplicate). The aliquots of serum were quenched with 40 μl of 6 M urea and incubated for 10 min at 4°C. The aliquots were then quenched with 40 μl of 20% trichloroacetic acid (TCA) and incubated for another 10 min at 4°C to precipitate serum proteins. Finally, samples were centrifuged at 17,000g for 10 min, and 90 μl of the supernatant was analyzed on reversed-phase HPLC using a Phenomenex Jupiter Proteo C12 analytical column (150 mm × 2.00 mm, 4 μm, 90 Å, Phenomenex, Torrance, CA, USA) and a linear gradient of solvent B [90% acetonitrile/10% H2O, 0.045% trifluoroacetic acid (TFA)] at a flow rate of 0.4 ml/min using an Agilent 1260 Infinity system (Agilent Technologies, Hanover, Germany). The control samples contained equivalent amounts of the peptides in PBS and were subjected to the same treatment procedure. The stability at each time point was calculated based on the area of the RP-HPLC peaks following incubation with serum at 214 nm as a percentage of the area of 0-h serum-treated peptides ([Chan et al., 2013]).

Where no end group is shown, it is not given here.

By amount remaining is commonly meant what is left of the initial amount, in per cent. Turning to YGPQALAR-NH2 [CTX-4], where the note is “lipid component removed by centrifugation, human male serum (lipid removed by centrifugation, pre-incubated 15 min at 37°C), 3 h, RP-HPLC C12 peak area at 214 nm as % of 0-h serum-treated peptide, triplicate, mean, read-out: peptide remaining after 3 h in human serum”, the share remaining at 3 h, 6.6 μM is under 10%. Regarding QMARKADDAAG-NH2 [CTX-2], under “human male serum, 37°C, 0-24 h, RP-HPLC at 214 nm”, the “relative stability in human serum among the fragments (in words)” value is recorded as “most stable of the peptides tested”. For the substance MAMPAFTTDH-NH2 [CTX-1], the “detection of peptide in human serum over time” value (human male serum, 37°C, 24 h, RP-HPLC at 214 nm) was “could be detected up to 24 h”. Also, the amount remaining at 8 h, 6.6 μM (lipid component removed by centrifugation, human male serum (lipid removed by centrifugation, pre-incubated 15 min at 37°C), 8 h, RP-HPLC C12 peak area at 214 nm as % of 0-h serum-treated peptide, triplicate, mean, read-out: peptide remaining at the 8-h time point in human serum) was over 18%.

(Values after paper PMC6435586 (Frontiers in Pharmacology, 2019).)
